Assay results from article PMC4661079 (Bioorganic & medicinal chemistry, 2015).

Tests used:
[1] = target: T1, TAK1 (Homo sapiens, UniProt O43318); assay: in vitro TAK1 inhibition assay; format: biochemical; conditions: for TAK1 inhibitory activity, result in words: in vitro TAK1 inhibition
T1 sequence (O43318 1-303 limits assumed): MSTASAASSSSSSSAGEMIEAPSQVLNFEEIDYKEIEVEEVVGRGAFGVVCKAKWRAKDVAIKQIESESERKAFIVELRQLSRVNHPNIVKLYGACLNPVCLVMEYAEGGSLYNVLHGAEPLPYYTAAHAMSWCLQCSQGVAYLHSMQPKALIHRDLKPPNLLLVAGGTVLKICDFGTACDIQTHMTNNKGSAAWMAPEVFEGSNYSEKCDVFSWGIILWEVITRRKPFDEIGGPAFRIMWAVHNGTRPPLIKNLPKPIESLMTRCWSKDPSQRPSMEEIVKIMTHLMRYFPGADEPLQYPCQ
T1 sequence (Q15750 437-504 partner limits assumed): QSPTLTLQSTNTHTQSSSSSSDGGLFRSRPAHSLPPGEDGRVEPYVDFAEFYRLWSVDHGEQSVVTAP

[2] = tested on: 85 kinases; conditions: 1 μM concentration; ref 14 (Wu et al.); cited from earlier work

| Structure (SMILES) | TAK1 inhibitory activity, result in words [1] | also measured |
| --- | --- | --- |
| CC=C/C=C\C(=O)[C@@H](O)[C@@H](O)C/C=C/c1cc(OC)cc(OC)c1C(=O)OC (stereo in doubt) [Compound 10, Methyl 2-((1E,4S,5S,7Z,9Z)-4,5-dihydroxy-6-oxoundeca-1,7,9-trien-1-yl)-4,6-dimethoxybenzoate] | inability |  |
| COc1cc(O)c2c(c1)/C=C/C[C@H](O)[C@H](O)C(=O)/C=C\C[C@H](C)OC2=O [Compound 1, (5Z)-7-oxozeaenol] |  | number of kinases with at least 50% inhibition out of 85 kinases tested [2]: 12 |
| COc1cc(O)c2c(c1)/C=C/C[C@H](O)[C@H](O)[C@@H](O)/C=C/C[C@H](C)OC2=O [Compound 3, zeaenol] | loss of activity |  |
| COc1cc(O)c2c(c1)[C@H]1O[C@@H]1C[C@H](O)[C@H](O)C(=O)CCC[C@H](C)OC2=O [Compound 5, dihydrohypothemycin] | loss of activity |  |
| COc1cc(O)c2c(c1)/C=C/C[C@H](O)[C@H](O)C(=O)CCC[C@H](C)OC2=O [Compound 7, LL-Z164-1] | loss of activity |  |
| COc1cc2c(c(O)c1Br)C(=O)O[C@@H](C)C/C=C\C(=O)[C@@H](O)[C@@H](O)C/C=C/2 [Compound 12, (3S,5Z,8S,9S,11E)-15-Bromo-8,9,16-trihydroxy-14-methoxy-3-methyl-3,4,9,10-tetrahydro-1H-benzo[c][1]oxacyclotetradecine-1,7(8H)-dione] | significantly less active |  |
| COc1cc(O)c2c(c1Br)/C=C/C[C@H](O)[C@H](O)C(=O)/C=C\C[C@H](C)OC2=O [Compound 13, (3S,5Z,8S,9S,11E)-13-Bromo-8,9,16-trihydroxy-14-methoxy-3-methyl-3,4,9,10-tetrahydro-1H-benzo[c][1]oxacyclotetradecine-1,7(8H)-dione] |  | times less active than difluoro derivative 11 ([1]; TAK1 inhibition, compared with 11): 5 times |
| COc1cc(O)c2c(c1)/C=C/C[C@@H]1OC(C)(C)O[C@@H]1C(=O)/C=C\C[C@H](C)OC2=O [Compound 16, (3aS,5Z,8S,15E,17aS)-11-Hydroxy-13-methoxy-2,2,8-trimethyl-7,8,17,17a-tetrahydro-4H-benzo[c][1,3]dioxolo[4,5-h][1]oxacyclotetradecine-4,10(3aH)-dione] |  | reduction of TAK1 inhibitory activity relative to 1 ([1]; compared with 1): more than 30 fold |

The next lines start with results.

| TAK1 inhibitory activity, result in words [1] | Structure (SMILES) | also measured |
| --- | --- | --- |
| diminished activity | COc1cc(O)cc2c1C(=O)O[C@@H](C)CCCCC/C=C/C(=O)C2 [Compound 8, greensborone C] |  |
| statistically equipotent to 1 | COC1=CC(=O)C2=C(/C=C/C[C@H](O)[C@H](O)C(=O)/C=C\C[C@H](C)OC2=O)C1(F)F [Compound 11, (3S,5Z,8S,9S,11E)-13,13-Difluoro-8,9-dihydroxy-14-methoxy-3-methyl-3,4,9,10-tetrahydro-1H benzo[c][1]oxacyclotetradecine-1,7,16(8H,13H)-trione] | IC50 [1]: 77 nM |
| least active | COc1c(Br)c(O)c2c(c1Br)/C=C/C[C@H](O)[C@H](O)C(=O)/C=C\C[C@H](C)OC2=O [Compound 14, (3S,5Z,8S,9S,11E)-13,15-Dibromo-8,9,16-trihydroxy-14methoxy-3-methyl-3,4,9,10-tetrahydro-1H-benzo[c][1]oxacyclotetradecine-1,7(8H)-dione] |  |
